Patent US20160075991A1, “Process for Preparing Starter Cultures of Lactic Acid Bacteria” (INSTITUT NATIONAL DE LA RECHERCHE, priority 1998, published 2016)

Tests used:
[1] = test system: Lactococcus lactis subsp. cremoris strain MG1363; experiment: Culturing in the presence of hemin with aeration (Example 1.1); type: cell-based; conditions: for pH: final pH of medium; for pH / OD600 nm / Viable bacterial count / Concentration of lactic acid: hemin 10 μg/ml, aeration, 24 h
Protocol: A laboratory medium (M17 supplemented with glucose in amounts, as indicated in the Table I, lactose being also usable) is inoculated with the Lactococcus lactic subsp. cremoris strain MG1363 in the form of a 1/100 or 1/1000 dilution of a saturated culture (prepared at 30° C. with no shaking). The inoculated medium contained or not hemin at a final concentration of 10 μg/ml (a 0.5 mg/ml stock solution is prepared by dissolving 100 mg of hemin in 2 ml of 5N NaOH, to which 198 ml of water is then added; the solution is autoclaved at 120° C. for 20 minutes). For bacteria grown in medium containing hemin, cultures were maintained at 30° C. with shaking (250 rotations per minute) in order to ensure oxygenation. Control cultures, without addition of hemin and without shaking, were grown at 30° C. in parallel. After 24 h of growth, aliquots are removed to measure the optical density at 600 nm (OD600 nm), the number of viable bacteria, the final pH and the concentration of lactic acid in the medium.

[2] = test system: Lactococcus lactis subsp. cremoris strain MG1363; experiment: Survival of the lactic acid bacteria during storage at 30° C. (Example 2); type: cell-based; conditions: for Number of viable cells: hemin 10 μg/ml and aeration, 1% glucose M17
Protocol: (§1) A laboratory medium, i.e. M17 supplemented with 1% of glucose, is inoculated with Lactococcus lactis subsp. cremoris strain MG1363 in the form of a 1/1000 dilution of a saturated culture. The cultures are then divided into two equal parts, and hemin is added to one of these two cultures to give a final concentration of 10 μg/ml. […] Aliquots of the two cultures are removed regularly during the exponential growth phase in order to monitor viability, rate of growth and pH. After 24 h of growth, the cultures are placed (stored) in a 30° C. incubator without shaking, and aliquots are removed every 24 h in order to monitor the viability of the cells.

[3] = test system: Lactococcus lactis subsp. cremoris strain MG1363; experiment: Survival of the lactic acid bacteria during storage at 4° C. (Example 3); type: cell-based; conditions: for Number of cells per ml: porphyrin compound and aeration, 1% glucose M17, storage at 4° C.
Protocol: as §1, with “cells. The Lactococcus lactis subsp. cremoris strain MG1363 was cultured as in the experiment described in Example 2, but the storage, which is carried out 24 h after inoculation, is at 4° C. instead of at 30° C.” for “cells.”

Z106 = experiment: Culture with hemin and agitation, different strains (Example 4); type: cell-based, L. lactis; conditions: strain Z106, hemin 10 μg/ml and agitation, M17 1% glucose, 24 h
Protocol: Bacteria [MG1363 and 7 strains (IL1403, IL582, IL801, IL896, Z105, Z106, Z191) representative of L. lactis subgroups [TAILLEZ et al., System. Appl. Microbiol., 21, 530-538, (1998)] are cultured in M17 medium (1% glucose) inoculated (1/1000 dilution) with a saturated starter culture previously grown at 30° C. for 24 h. Hemin at a final concentration of 10 μg/ml is added to the inoculated medium before aerating the cultures by shaking (minimum 220 rpm). Control cultures are grown in parallel with no hemin in the medium, and no shaking. After 24 h., aliquots are taken and OD600 and final pH are measured.

[4] = glucose 5 g/l, dilution factor 100
[5] = glucose 5 g/l, dilution factor 1000
[6] = glucose 6 g/l, dilution factor 100
[7] = glucose 6 g/l, dilution factor 1000
[8] = glucose 7 g/l, dilution factor 100
[9] = glucose 7 g/l, dilution factor 1000
[10] = glucose 8 g/l, dilution factor 100
[11] = glucose 8 g/l, dilution factor 1000
[12] = glucose 9 g/l, dilution factor 100
[13] = glucose 9 g/l, dilution factor 1000
[14] = glucose 10 g/l, dilution factor 100
[15] = glucose 10 g/l, dilution factor 1000

C=CC1=C(C)c2cc3[n-]c(cc4nc(cc5[n-]c(cc1n2)c(C)c5C=C)C(C)=C4CCC(=O)O)c(CCC(=O)O)c3C.[Cl-].[Fe+3] [hemin]
production of lactic acid as share of the quantity of sugar added ([1]; cells cultured in the presence of hemin and oxygen): less than 10%
pH [1, 4]: 6.2
pH [1, 5]: 6.19
pH [1, 6]: 6.25
pH [1, 7]: 6.13
pH [1, 8]: 6.09
pH [1, 9]: 6.07
pH [1, 10]: 6.04
pH [1, 11]: 6.03
pH [1, 12]: 6.02
pH [1, 13]: 6.01
pH [1, 14]: 6.01
pH [1, 15]: 5.99
OD600 nm [1, 4]: 4.6
Viable bacterial count [1, 4]: 5.7 ×10^9
Concentration of lactic acid [1, 5]: 0.12 g/L
OD600 nm [1, 5]: 4.5
Viable bacterial count [1, 5]: 5.7 ×10^9
OD600 nm [1, 6]: 5.1
Viable bacterial count [1, 6]: 6 ×10^9
Concentration of lactic acid [1, 7]: 0.14 g/L
OD600 nm [1, 7]: 5.5
Viable bacterial count [1, 7]: 7.6 ×10^9
OD600 nm [1, 8]: 5.6
Viable bacterial count [1, 8]: 9.1 ×10^9
Concentration of lactic acid [1, 9]: 0.19 g/L
OD600 nm [1, 9]: 5.7
Viable bacterial count [1, 9]: 8.6 ×10^9
OD600 nm [1, 10]: 5.9
Viable bacterial count [1, 10]: 8.9 ×10^9
Concentration of lactic acid [1, 11]: 0.35 g/L
OD600 nm [1, 11]: 5.4
Viable bacterial count [1, 11]: 9.3 ×10^9
OD600 nm [1, 12]: 5.9
Viable bacterial count [1, 12]: 9.2 ×10^9
Concentration of lactic acid [1, 13]: 0.52 g/L
OD600 nm [1, 13]: 5.8
Viable bacterial count [1, 13]: 9.4 ×10^9
OD600 nm [1, 14]: 6.1
Viable bacterial count [1, 14]: 10.1 ×10^9
Concentration of lactic acid [1, 15]: 0.98 g/L
OD600 nm [1, 15]: 6.2
Viable bacterial count [1, 15]: 9.6 ×10^9
pH of the culture (remains stable) ([1]; hemin and oxygen, whatever the concentration of glucose): approximately 6.1
viability after one day of storage ([2]; 2 days after inoculation, storage at 30° C., hemin and oxygen): do not lose any viability
rate of survival ([2]; after 5 days of storage at 30° C., grown with aeration and hemin): approximately 10^−2
Number of viable cells ([2]; 0 days after inoculation): 1 × 10^6
Number of viable cells ([2]; 1 day after inoculation): 1.76 × 10^10
Number of viable cells ([2]; 2 days after inoculation, stored at 30° C.): 1.71 × 10^10
Number of viable cells ([2]; 3 days after inoculation, stored at 30° C.): 5.32 × 10^9
Number of viable cells ([2]; 5 days after inoculation, stored at 30° C.): 4.3 × 10^8
Number of viable cells ([2]; 6 days after inoculation, stored at 30° C.): 8.5 × 10^7
survival rate ([3]; after 2 months at 4° C., cultured with porphyrin compound under aeration): ~5%
Number of cells per ml ([3]; 0 days after culture): 4.3 × 10^9 cells per ml
Number of cells per ml ([3]; 1 day after culture): 4.2 × 10^9 cells per ml
Number of cells per ml ([3]; 2 days after culture): 3.8 × 10^9 cells per ml
Number of cells per ml ([3]; 3 days after culture): 3.8 × 10^9 cells per ml
Number of cells per ml ([3]; 7 days after culture): 4.2 × 10^9 cells per ml
Number of cells per ml ([3]; 8 days after culture): 2.8 × 10^9 cells per ml
Number of cells per ml ([3]; 9 days after culture): 2.2 × 10^9 cells per ml
Number of cells per ml ([3]; 10 days after culture): 9.6 × 10^8 cells per ml
Number of cells per ml ([3]; 13 days after culture): 5.0 × 10^8 cells per ml
Number of cells per ml ([3]; 15 days after culture): 3.2 × 10^8 cells per ml
Number of cells per ml ([3]; 22 days after culture): 3.0 × 10^8 cells per ml
Number of cells per ml ([3]; 28 days after culture): 3.0 × 10^8 cells per ml
Number of cells per ml ([3]; 36 days after culture): 2.9 × 10^8 cells per ml
Number of cells per ml ([3]; 43 days after culture): 2.2 × 10^8 cells per ml
Number of cells per ml ([3]; 50 days after culture): 1.8 × 10^8 cells per ml
Number of cells per ml ([3]; 57 days after culture): 2.0 × 10^8 cells per ml
pH (Z106; final pH): 5.74
OD500 nm (Z106): 4.5
